Here are results for 7 compounds from PubChem BioAssay (NCI).

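1) Cells in 96-well plates. 2) Compound, 48 h, 5 concentrations. 3) Linear interpolation between surrounding doses. 4) Unreached endpoint = highest concentration. TGI is the concentration that stops growth completely.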

Holding throughout (experiment): inhibition of tumour cell growth, NCI panel, 48 h
The subject of assay [1] is 786-0 renal.
Assay [2] relates to RPMI-8226 leukemia.
Assay [3] has as its system SK-MEL-2 melanoma.
Assay [4] relates to HS 578T breast.
In assay [5] the test system is LOX IMVI melanoma.
In assay [6] the test system is PC-3 prostate.
The test system of assay [7] is ACHN renal.
Assay [8] has as its system COLO 205 colon.
Assay [9] deals with SNB-75 CNS.
The subject of assay [10] is SK-MEL-28 melanoma.
Assay [11] concerns SNB-19 CNS.
The test system of assay [12] is HCC-2998 colon.
In assay [13] the test system is CAKI-1 renal.
Assay [14] relates to NCI-H226 lung.
The test system of assay [15] is KM12 colon.
For assay [16], the system named is BT-549 breast.
The test system of assay [17] is MOLT-4 leukemia.
For assay [18], the system named is HCT-15 colon.
Assay [19] has as its system OVCAR-4 ovarian.
The test system of assay [20] is A498 renal.

As to `O=C1C(c2c(O)[nH]c3ccc(F)cc23)=Nc2ccccc21`, the TGI in assay [1], in [2], in assay [3], in [4], in assay [5] and in [6] was above 100 µM throughout. For the same compound, the TGI was above 100 µM in assay [7]; above 100 µM in [8]; 15.1 µM in assay [9]; above 100 µM in assay [10]; above 100 µM in assay [11]; above 100 µM in [12]. Further, the TGI in assay [13] was above 100 µM; in assay [14] it was above 100 µM; in assay [15], above 100 µM; in assay [16], above 100 µM; in assay [17], 81.5 µM; in assay [18], above 100 µM.

`O=C1/C(=C/c2ccccc2S)N=C(c2ccccc2)N1c1nc2c(Cl)cc(Cl)cc2s1`: the TGI in [1] came out at 74.1 µM; in assay [2], 54.1 µM; in assay [3], 52.9 µM; in [4], 75.8 µM; in assay [5], 50.4 µM; in [6] it was 51.6 µM. Moreover, the TGI was 73.8 µM in assay [19]; 58 µM in [7]; 40.7 µM in assay [20]; 54.8 µM in assay [8]; 64.8 µM in [9]; above 100 µM in [10]. The TGI in assay [11] was 84.5 µM; in assay [12], 54.7 µM; in assay [13] it was above 100 µM; in assay [15], 88.1 µM; in assay [16] it was above 100 µM; in assay [17] it was 30.2 µM. Besides, the TGI in assay [18] was above 100 µM.

Turning to `C/C=C(/C)C(=O)O[C@@H]1CCN2CC[C@H](COC(=O)/C(=C/C)CO)C12` (some centres undefined), the TGI in assay [1] was above 100 µM; in [2], above 87.8 µM; in assay [3], above 100 µM; in [4] it was above 93.4 µM; in [5], above 100 µM; in assay [6], above 100 µM. The TGI in [19] is above 100 µM; in assay [7], above 100 µM; in [8], 42.7 µM; in assay [9], above 100 µM; in [10], above 100 µM; in assay [11], above 100 µM. Also, the TGI was 44 µM in [12]; above 100 µM in assay [13]; above 100 µM in assay [14]; above 100 µM in assay [15]; above 100 µM in assay [16]; above 100 µM in assay [17]. The TGI in assay [18] is above 100 µM.

Turning to `NC(=O)C(C(N)=O)=C(O)C(=O)/C=C(\O)c1ccccc1`, the TGI in [1] is above 100 µM; in assay [2] it was 31.7 µM; in assay [3] it was above 100 µM; in [4], above 100 µM; in assay [5], above 100 µM; in [6] it was above 100 µM. Moreover, the TGI in assay [19], in assay [7], in [20], in [8], in [9] and in [10] was above 100 µM each time. Further, the TGI in [11], in assay [12], in assay [13], in assay [14], in assay [15] and in assay [16] was above 100 µM each time. This compound also came in with a TGI in [18] above 100 µM.

Consider `CC(C)=CC[C@]12CCN[C@H]1N(S(=O)(=O)c1ccccc1)c1ccccc12`, for which the TGI worked out at 32.2 µM in [1]; 45.9 µM in assay [2]; 31.6 µM in assay [3]; 44.5 µM in [4]; 31.2 µM in assay [5]; 27.4 µM in assay [6]. The TGI in [19] amounted to 42 µM; in assay [7] it was 50.7 µM; in assay [8] it was 41 µM; in [9], 44.5 µM; in assay [10] it was 31.5 µM; in assay [11] it was 51.2 µM. Moreover, the TGI in assay [12] came out at 32.1 µM; in [13], 69.4 µM; in [14], 36.7 µM; in [15] it was 76.3 µM; in assay [16] it was 33.7 µM; in assay [17], 75.8 µM. Also, the TGI in [18] is 32.8 µM.

Regarding `Cn1cc(NC(=O)Nc2cc(C(=O)Nc3cc(C(=O)Nc4ccc(S(=O)(=O)O)c5cc(S(=O)(=O)O)ccc45)n(C)c3)n(C)c2)cc1C(=O)Nc1cc(C(=O)Nc2ccc(S(=O)(=O)O)c3cc(S(=O)(=O)O)ccc23)n(C)c1`, the TGI in assay [1], in [2], in assay [4], in assay [6], in assay [19] and in [7] was above 100 µM throughout. Also, the TGI in assay [8], in assay [9], in assay [10], in assay [11], in assay [12] and in assay [14] was above 100 µM throughout. Further, the TGI in [15], in assay [16], in assay [17] and in assay [18] was above 100 µM each time.

For `Cn1ccc(C(=O)NCCN(CCNC(=O)c2ccn(C)c(=O)c2O)CCNC(=O)c2cccc(=O)n2O)c(O)c1=O`, the TGI in assay [1], in assay [2], in assay [3], in assay [4], in assay [5] and in assay [6] was above 100 µM each time. The TGI in assay [19], in [7], in assay [20], in [8], in assay [9] and in assay [10] was above 100 µM throughout. The TGI in assay [11], in assay [12], in [13], in [14], in [15] and in assay [16] was above 100 µM throughout. This compound also registered a TGI in assay [18] above 100 µM.
